{
  "source": "patent US10028992B2",
  "about": "“Methods of treating muscular dystrophy” (BOARD OF REGENTS OF THE NEVADA SYSTEM OF HIGHER EDUCATION …, priority 2012, dated 2018)",
  "system": "α7 integrin promoter",
  "experiment": "muscle cell-based assay: α7βgal+/− myoblasts/myotubes, LacZ reporter, β-galactosidase cleavage of FDG",
  "set-up": "species or system mouse; Results in α7+/− β-galactosidase assay: scale not given here",
  "conditions": "for Results in α7+/− β-galactosidase assay / Result in α7+/− β-galactosidase assay: Myoblasts; for Fit Curve Class: key not given; for Results in a α7+/− β-galactosidase assay, Myotubes, 0.5 uM: compound at 0.5 uM; for Results in a α7+/− β-galactosidase assay, Myotubes, 1 uM: compound at 1 uM; for Results in a α7+/− β-galactosidase assay, Myotubes, 5 uM: compound at 5 uM; for Results in a α7+/− β-galactosidase assay, Myotubes, 10 uM: compound at 10 uM; for Results in a α7+/− β-galactosidase assay, Myotubes, 20 uM: compound at 20 uM; for Results in a α7+/− β-galactosidase assay, Myotubes, 40 uM: compound at 40 uM",
  "in_short": "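Fluorescein generated from FDG by β-galactosidase reports α7 integrin promoter activity in differentiated myoblasts from α7+/− LacZ knock-in pups. Screening hits then went to dose-response, western blotting and a myostatin counterscreen.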",
  "key": {"[1]": {"conditions": "Mus musculus, given as log AC50 (negative values), read-out: Fit LogAC50 (converted)"}, "[2]": {"conditions": "curve fit, activity at zero concentration"}},
  "note": "Read-outs that look alike come from different tables or passages of the source.",
  "data": [
    {"smiles": "CCCN(C(=O)c1ccc(S(=O)(=O)N2CCCC2)cc1)C1CCS(=O)(=O)C1", "note": "(stereo not drawn) [drawing 560]", "values": [
      {"measurement": "Results in α7+/− β-galactosidase assay", "setting": "0.5 uM", "value": "−0.1431"},
      {"measurement": "Results in α7+/− β-galactosidase assay", "setting": "1 uM", "value": "−0.1722"},
      {"measurement": "Results in α7+/− β-galactosidase assay", "setting": "5 uM", "value": "−0.06143"},
      {"measurement": "Results in α7+/− β-galactosidase assay", "setting": "10 uM", "value": 0.1978},
      {"measurement": "Results in α7+/− β-galactosidase assay", "setting": "20 uM", "value": 0.07259},
      {"measurement": "Results in α7+/− β-galactosidase assay", "setting": "40 uM", "value": "−0.0646"}
    ]},
    {"smiles": "Cc1cc(C)c(/C=C2\\C(=O)Nc3ccccc32)[nH]1", "note": "[drawing 718]", "values": [
      {"measurement": "Result in α7+/− β-galactosidase assay", "setting": "0.5 uM", "value": 0.03555},
      {"measurement": "Result in α7+/− β-galactosidase assay", "setting": "1 uM", "value": 0.05336},
      {"measurement": "Result in α7+/− β-galactosidase assay", "setting": "5 uM", "value": "−0.2683"},
      {"measurement": "Result in α7+/− β-galactosidase assay", "setting": "10 uM", "value": "−0.3603"},
      {"measurement": "Result in α7+/− β-galactosidase assay", "setting": "20 uM", "value": "−0.2204"},
      {"measurement": "Result in α7+/− β-galactosidase assay", "setting": "40 uM", "value": "−0.3534"}
    ]},
    {"smiles": "Cn1c(SCC(=O)c2ccccc2)nc2c(c1=O)C1(CCCC1)Cc1ccccc1-2", "note": "[Compound ID# 1001, 3-methyl-2-[(2-oxo-2-phenylethyl)thio]-3H-spiro[benzo[h]quinazoline-5,1″-cyclopentan]-4(6H)-one]", "values": [
      {"measurement": "Optimal Concentration", "setting": "enhancement of α7 integrin expression in muscle cells", "value": 12.5, "unit": "μm"},
      {"measurement": "EC50", "setting": "enhancement of α7 integrin expression in muscle cells, read-out: EC50", "value": 3, "unit": "µM"},
      {"measurement": "α7 integrin expression in muscle", "setting": "screen of DIVERSet library", "value": "increased"}
    ]},
    {"smiles": "NC(=O)c1nsc(C(=O)N(c2ccccc2)C(C(=O)NCc2ccc(F)cc2)c2ccc(O)cc2)c1N", "note": "(stereo not drawn) [Compound 16]", "values": [
      {"measurement": "AC50", "setting": "Mus musculus, Table 12, log of AC50, given with negative sign, unit of AC50 not given, read-out: Fit Log AC50 (converted)", "value": 2.24, "unit": "µM"},
      {"measurement": "Emax", "setting": "Mus musculus, read-out: Max Response [%]", "value": 75.2, "unit": "%"},
      {"measurement": "Fit HillSlope", "setting": "Table 12, curve fit", "value": 1.3443},
      {"measurement": "Fit Zero Activity [%]", "setting": "Table 12, fitted activity at zero concentration", "value": "−37.8568", "unit": "%"},
      {"measurement": "Fit Curve Class", "setting": "Table 12", "value": 1.1},
      {"measurement": "Score", "setting": "Table 12 Compound data, concentration-response curve fit", "value": 84}
    ]},
    {"smiles": "COc1ccc(-c2cc(COc3ccccc3)on2)cc1", "note": "[Compound 188]", "values": [
      {"measurement": "EC50", "setting": "[1]", "value": 10, "unit": "µM"},
      {"measurement": "Score", "setting": "Table 12 compound data", "value": 42},
      {"measurement": "Fit Curve Class", "setting": "curve class number", "value": 2.1},
      {"measurement": "Fit HillSlope", "setting": "curve fit", "value": 4.5045},
      {"measurement": "Fit Zero Activity [%]", "setting": "[2]", "value": 0.195, "unit": "%"}
    ]},
    {"smiles": "CCCc1nnc(SCC(=O)NC2CCCC2)n1CCOC", "note": "[drawing 467]", "values": [
      {"measurement": "Results in a α7+/− β-galactosidase assay, Myotubes, 0.5 uM", "value": "−0.09246"},
      {"measurement": "Results in a α7+/− β-galactosidase assay, Myotubes, 1 uM", "value": 0.01763},
      {"measurement": "Results in a α7+/− β-galactosidase assay, Myotubes, 5 uM", "value": "−0.3088"},
      {"measurement": "Results in a α7+/− β-galactosidase assay, Myotubes, 10 uM", "value": 0.4536},
      {"measurement": "Results in a α7+/− β-galactosidase assay, Myotubes, 20 uM", "value": "−0.2024"},
      {"measurement": "Results in a α7+/− β-galactosidase assay, Myotubes, 40 uM", "value": "−0.4694"}
    ]},
    {"smiles": "CCOc1ccccc1NC(=O)COC(=O)CNS(=O)(=O)c1ccc(C)cc1", "note": "[drawing 648]", "values": [
      {"measurement": "Results in α7+/− β-galactosidase assay", "setting": "0.5 uM", "value": 0.03233},
      {"measurement": "Results in α7+/− β-galactosidase assay", "setting": "1 uM", "value": 0.05083},
      {"measurement": "Results in α7+/− β-galactosidase assay", "setting": "5 uM", "value": "−0.02764"},
      {"measurement": "Results in α7+/− β-galactosidase assay", "setting": "10 uM", "value": "−0.06749"},
      {"measurement": "Results in α7+/− β-galactosidase assay", "setting": "20 uM", "value": "−0.1666"},
      {"measurement": "Results in α7+/− β-galactosidase assay", "setting": "40 uM", "value": "−0.1295"}
    ]},
    {"smiles": "COc1cc(NC(=O)C2C3C=CC(C3)C2C(=O)O)ccc1NC(=O)c1ccccc1", "note": "(stereo not drawn) [Compound 142]", "values": [
      {"measurement": "EC50", "setting": "[1]", "value": 8.91, "unit": "µM"},
      {"measurement": "Score", "setting": "Table 12 compound data", "value": 42},
      {"measurement": "Fit Curve Class", "setting": "curve class number", "value": 2.1},
      {"measurement": "Fit HillSlope", "setting": "curve fit", "value": 2.4064},
      {"measurement": "Fit Zero Activity [%]", "setting": "[2]", "value": "−18.7775", "unit": "%"}
    ]},
    {"smiles": "COC(=O)c1ccccc1CC(=O)CSc1nc(O)c(-c2ccccc2)c(O)n1", "note": "[drawing 458]", "values": [
      {"measurement": "Results in a α7+/− β-galactosidase assay, Myotubes, 0.5 uM", "value": "−0.05289"},
      {"measurement": "Results in a α7+/− β-galactosidase assay, Myotubes, 1 uM", "value": "−0.1068"},
      {"measurement": "Results in a α7+/− β-galactosidase assay, Myotubes, 5 uM", "value": "−0.1993"},
      {"measurement": "Results in a α7+/− β-galactosidase assay, Myotubes, 10 uM", "value": 0.1104},
      {"measurement": "Results in a α7+/− β-galactosidase assay, Myotubes, 20 uM", "value": "−0.1578"},
      {"measurement": "Results in a α7+/− β-galactosidase assay, Myotubes, 40 uM", "value": 0.03611}
    ]},
    {"smiles": "Cn1cc(CN(CCO)Cc2cccs2)c(-c2ccccc2F)n1", "note": "[drawing 523]", "values": [
      {"measurement": "Results in α7+/− β-galactosidase assay", "setting": "0.5 uM", "value": 0.1756},
      {"measurement": "Results in α7+/− β-galactosidase assay", "setting": "1 uM", "value": 0.1912},
      {"measurement": "Results in α7+/− β-galactosidase assay", "setting": "5 uM", "value": "−0.02798"},
      {"measurement": "Results in α7+/− β-galactosidase assay", "setting": "10 uM", "value": 0.2648},
      {"measurement": "Results in α7+/− β-galactosidase assay", "setting": "20 uM", "value": 0.0346},
      {"measurement": "Results in α7+/− β-galactosidase assay", "setting": "40 uM", "value": "−0.1208"}
    ]},
    {"smiles": "O=C(NCCc1ccccc1)C1CCC(=O)N1C1CCCC1", "note": "(stereo not drawn) [drawing 559]", "values": [
      {"measurement": "Results in α7+/− β-galactosidase assay", "setting": "0.5 uM", "value": "−0.1018"},
      {"measurement": "Results in α7+/− β-galactosidase assay", "setting": "1 uM", "value": "−0.1461"},
      {"measurement": "Results in α7+/− β-galactosidase assay", "setting": "5 uM", "value": 0.003015},
      {"measurement": "Results in α7+/− β-galactosidase assay", "setting": "10 uM", "value": 0.245},
      {"measurement": "Results in α7+/− β-galactosidase assay", "setting": "20 uM", "value": 0.1433},
      {"measurement": "Results in α7+/− β-galactosidase assay", "setting": "40 uM", "value": 0.02863}
    ]},
    {"smiles": "CCn1c(=O)c2cc(C(=O)N(C)c3cc(C)ccc3OC)sc2c2ccccc21", "note": "[drawing 636]", "values": [
      {"measurement": "Results in α7+/− β-galactosidase assay", "setting": "0.5 uM", "value": 0.06384},
      {"measurement": "Results in α7+/− β-galactosidase assay", "setting": "1 uM", "value": "−0.07654"},
      {"measurement": "Results in α7+/− β-galactosidase assay", "setting": "5 uM", "value": "−0.2273"},
      {"measurement": "Results in α7+/− β-galactosidase assay", "setting": "10 uM", "value": "−0.2656"},
      {"measurement": "Results in α7+/− β-galactosidase assay", "setting": "20 uM", "value": "−0.396"},
      {"measurement": "Results in α7+/− β-galactosidase assay", "setting": "40 uM", "value": "−0.3923"}
    ]},
    {"smiles": "Cc1ccccc1NC(=O)NCCCN1CCN(C)CC1", "note": "[drawing 537]", "values": [
      {"measurement": "Results in α7+/− β-galactosidase assay", "setting": "0.5 uM", "value": 0.06224},
      {"measurement": "Results in α7+/− β-galactosidase assay", "setting": "1 uM", "value": 0.06912},
      {"measurement": "Results in α7+/− β-galactosidase assay", "setting": "5 uM", "value": 0.01544},
      {"measurement": "Results in α7+/− β-galactosidase assay", "setting": "10 uM", "value": "−0.04766"},
      {"measurement": "Results in α7+/− β-galactosidase assay", "setting": "20 uM", "value": 0.09447},
      {"measurement": "Results in α7+/− β-galactosidase assay", "setting": "40 uM", "value": 0.1887}
    ]},
    {"smiles": "COc1ccc(CCNC(=O)c2cc(-c3cc(C)ccc3O)n[nH]2)cc1OC", "note": "[Compound 217]", "values": [
      {"measurement": "EC50", "setting": "[1]", "value": 10, "unit": "µM"},
      {"measurement": "Score", "setting": "Table 12 compound data", "value": 42},
      {"measurement": "Fit Curve Class", "setting": "curve class number", "value": 2.2},
      {"measurement": "Fit HillSlope", "setting": "curve fit", "value": 3.0654},
      {"measurement": "Fit Zero Activity [%]", "setting": "[2]", "value": 9.7958, "unit": "%"}
    ]}
  ]
}
